Key:
VEGF = VEGF expression in DU-145 cells, immunoblotting; assay type: cell-based, human; conditions: 4 μm AC620, 72 hr
Description: AC620 was dissolved in ethanol and then added to cultured DU-145 cells, a hormone-refractory, metastatic prostate cancer cell line. The concentrations tested were 0, 0.1, 0.5, 1 and 4 μM, and the cells were grown for 72 hr. Cells treated with ethanol for the same time period were used as Control. DU-145 cells were maintained in RPMI 1640 medium (PAA Laboratories, Pashing, Austria) supplemented with 10% fetal calf serum (FCS) (Sigma, St. Louis, Mo.). After 72 hr treatment, cell Tysates were collected and immunoblotting was performed. The membranes were probed with primary antibodies against VEGF and actin (Santa Cruz Biotechnology, Santa Cruz, Calif.) followed by horseradish peroxidase (HRP)-conjugated secondary antibodies (Amersham Life Science, Alesbury, U.K.) and visualized using the Enhanced Chemi-Luminescence detection system (ECL) and ECL films (Amersham Pharmacia Biotech).

DU-145 cells [1] = assay: BrdU based cell proliferation assay, DU-145 cells; parameters: species or system human
Description: (§1) AC620 was incubated with hormone-refractory prostate cancer cell line DU-145 cells and hormone-responsive prostate cancer cell line LNCaP cells at various concentrations (0, 0.1, 0.5, 1, 5 μM) for 72 hr. LNCaP cells were maintained in RPMI 1640 medium (PAA Laboratories, Pashing, Austria) supplemented with 10% fetal calf serum (FCS) (Sigma, St. Louis, Mo.). The effect of AC620 on proliferation of DU-145 cells and LNCaP cells was determined by using a non-radioactive BrdU based cell proliferation assay kit (Roche, Switzerland) according to manufacturer's protocol. BrdU incorporation into the cellular DNA was determined by measuring the absorbance at 450 nm and 690 nm on an ELISA plate reader.
as §1, with “0 (Control) and” for “various concentrations (0, 0.1, 0.5, 1,”, “μM” for “μM)”, “for 24, 48 and” for “for”, “hr.” for “hr. LNCaP cells were maintained in RPMI 1640 medium (PAA Laboratories, Pashing, Austria) supplemented with 10% fetal calf serum (FCS) (Sigma, St. Louis, Mo.).”

DU-145 cells [2] = assay: Viable cells, Annexin-V staining and flow cytometry, DU-145 cells; assay type: cell-based, human; conditions: 72 hr
Description: (§2) AC620 was incubated with DU-145 cells, LNCaP cells and primary human prostate endothelial cells at high concentrations (0, 5, 100, 500, 1000 μM) for 72 hr. The number of viable cells was measured by Annexin-V staining followed by flow cytometry analysis.

DU-145 tumor xenografts = assay: Tumor growth in DU-145 xenograft mouse model; assay type: in vivo; conditions: for decrease of tumor size: athymic nude mice, DU-145 xenograft
Description: (§3) 8-12 week old athymic nude mice (Jackson Laboratories, Bar Harbor, Me., US) were randomly assigned to Control (n=10) and Treatment (n=10) groups. Tumor xenografts were generated by injecting DU-145 cells (4×10^6) subcutaneously into the mice (Day 1). 1 mg/kg body weight of AC620 or PBS (Control) was administrated to the mice by subcutaneous injection starting at the time of tumor implantation (Day 1) and the mice were treated twice a week. Tumors were measured periodically. At Day 30, the mice were sacrificed. Half of each tumor was processed for immunohistochemical analysis and the other half was frozen for subsequent protein and RNA analysis.

CDK2 [3] = assay: CDK2 expression in xenograft tumor samples, immunoblotting; assay type: in vivo, mouse
Description: as §3
Xenograft mouse model was generated and AC620 or PBS (Control) was administrated to the transplanted mice for 30 days as described above. After the mice were sacrificed, immunoblotting analysis of the tumor samples was performed using CDK1 and CDK2 antibodies as described above.

CDK2 [4] = assay: CDK2 expression in DU-145 cells, immunoblotting; assay type: cell-based, human; conditions: 72 hr
Description: After 72 hr treatment, cell lysates were collected and immunoblotting was performed. The membranes were probed with primary antibodies against CDK2 (Transduction Laboratory, San Jose, Calif.) and actin (Santa Cruz Biotechnology, Santa Cruz, Calif.) followed by horseradish peroxidase (HRP)-conjugated secondary antibodies and visualized using the Enhanced Chemi-Luminescence detection system (ECL) and ECL films.

p21 = p21 expression in xenograft tumor samples, immunoblotting; assay type: in vivo, mouse
Description: as §3
(§4) Xenograft mouse model was generated and AC620 or PBS (Control) was administrated to the transplanted mice for 30 days as described above. After the mice were sacrificed, immunoblotting analysis of the tumor samples was performed using Bcl-2 and p21 antibodies as described above.

[5] = tested on: primary human prostate endothelial cells; assay: Viable cells, Annexin-V staining and flow cytometry, primary human prostate endothelial cells; assay type: cell-based; conditions: up to the highest concentration, 1000 μM, 72 hr
Description: as §2

HT-29 cells = assay: Apoptosis, Annexin V, HT-29 cells; assay type: cell-based; conditions: 72 hr
Description: AC620 was incubated with DU-145 cells and LNCaP cells at various concentrations (0, 0.1, 0.5, 1, 5 μM) for 72 hr. The effect of AC620 on apoptosis of DU-145 cells and LNCaP cells was assessed. The cells were washed in 1×PBS and resuspended in binding buffer (0.01M Hepes pH 7.4, 0.14M NaCl, 2.5 mM CaCl2), stained with Annexin V conjugated with APC (Pharmingen) and then subjected to flow cytometry analysis using FACS Caliber (BD Biosciences, San Jose, Calif.).
AC620 was incubated with metastatic colorectal cancer cell line HT-29 cells at various concentrations (0, 0.1, 0.5, 1, 4 μM) for 72 hr. The effect of AC620 on apoptosis of HT-29 cells was assessed by Annexin V stating as described above.

Bcl-2 = Bcl-2 expression in xenograft tumor samples, immunoblotting; assay type: in vivo, mouse
Description: as §3, §4

CC1OC(OCC2OC(Oc3c(-c4ccc(O)c(O)c4)oc4cc(O)c(O)cc4c3=O)C(O)C(O)C2O)C(O)C(O)C1O (stereo not shown) [AC620]
reduced VEGF expression (VEGF): over 95% | decrease in cell proliferation of DU-145 cells (DU-145 cells [1]; 5 μM, after 24 hr): 6% | decrease in cell proliferation of DU-145 cells (DU-145 cells [1]; 5 μM, after 48 hrs): 31% | decrease in cell proliferation of DU-145 cells (DU-145 cells [1]; 5 μM, after 72 hr (time study)): 86% | decrease in cell proliferation of DU-145 cells (DU-145 cells [1]; 0.1 μm, 72 hr): 37% | decrease in cell proliferation of DU-145 cells (DU-145 cells [1]; 0.5 μm, 72 hr): 58% | decrease in cell proliferation of DU-145 cells (DU-145 cells [1]; 1 μm, 72 hr): 72% | decrease in cell proliferation of DU-145 cells (DU-145 cells [1]; 5 μm, 72 hr (dose study)): 84% | viable DU-145 cells decreased (DU-145 cells [2]; 5 μm): 67% | viable DU-145 cells decreased (DU-145 cells [2]; 100 μm): 93% | viable DU-145 cells decreased (DU-145 cells [2]; 500 μm): 94% | viable DU-145 cells decreased (DU-145 cells [2]; 1000 μm): 97% | tumor growth compared to Control (DU-145 tumor xenografts; 1 mg/kg subcutaneous twice a week, P<0.03): significantly reduced | decrease of tumor size (DU-145 tumor xenografts; Day 19, 1 mg/kg subcutaneous twice a week): 47% | decrease of tumor size (DU-145 tumor xenografts; Day 22, 1 mg/kg subcutaneous twice a week): 37% | decrease of tumor size (DU-145 tumor xenografts; Day 25, 1 mg/kg subcutaneous twice a week): 24% | decrease of tumor size (DU-145 tumor xenografts; Day 29, 1 mg/kg subcutaneous twice a week): 13% | morphology of tumor samples compared to Control group (DU-145 tumor xenografts; immunohistochemical specimens, 30 days treatment): more differentiated morphology | reduction of CDK2 expression in tumor samples (CDK2 [3]; Treatment 1): approximately 80% | reduction of CDK2 expression in tumor samples (CDK2 [3]; Treatments 2, 3 and 4): > 95% | estimated decrease of CDK2 expression (CDK2 [4]; 0.1 μm): ~0% | estimated decrease of CDK2 expression (CDK2 [4]; 0.5 μm): ~10% | estimated decrease of CDK2 expression (CDK2 [4]; 1 μm): ~20% | estimated decrease of CDK2 expression (CDK2 [4]; 4 μm): ~60% | p21 expression reduced in tumor samples (p21; Treatment 1): 0% | p21 expression reduced in tumor samples (p21; Treatment 2): 70% | p21 expression reduced in tumor samples (p21; Treatment 3): 60% | p21 expression reduced in tumor samples (p21; Treatment 4): 90% | viability of primary human prostate endothelial cells [5]: remained viable | apoptosis increased, HT-29 cells (HT-29 cells; 0.1 μm): 10% | apoptosis increased, HT-29 cells (HT-29 cells; 0.5 μm): 87% | apoptosis increased, HT-29 cells (HT-29 cells; 1 μm): 220% | apoptosis increased, HT-29 cells (HT-29 cells; 5 μm): 267% | estimated decrease of Bcl-2 expression in tumor samples (Bcl-2; Treatment 1): ~80% | estimated decrease of Bcl-2 expression in tumor samples (Bcl-2; Treatment 2): > 95% | estimated decrease of Bcl-2 expression in tumor samples (Bcl-2; Treatment 3): ~90% | estimated decrease of Bcl-2 expression in tumor samples (Bcl-2; Treatment 4): > 95%
